Assay results reported in ChEMBL document CHEMBL4219183, “Novel purine benzimidazoles as antimicrobial agents by regulating ROS generation and targeting clinically resistant Staphylococcus aureus DNA groove” (Bioorg Med Chem Lett, 2018).
Values after ≈ are worked out from the molar mass of the structure shown.

Legend:
Type in all cases: functional
[1] = tested on: Staphylococcus aureus; test: Antibacterial activity against methicillin-resistant Staphylococcus aureus N315 after 24 hrs by two fold serial dilution method; conditions: N315, 24 h
[2] = tested on: Enterococcus faecalis; test: Antibacterial activity against Enterococcus faecalis after 24 hrs by two fold serial dilution method
[3] = tested on: Staphylococcus aureus; test: Antibacterial activity against Staphylococcus aureus after 24 hrs by two fold serial dilution method
[4] = tested on: Staphylococcus aureus; test: Antibacterial activity against Staphylococcus aureus ATCC 25923 after 24 hrs by two fold serial dilution method; conditions: ATCC 25923, 24 h
[5] = tested on: Staphylococcus aureus; test: Antibacterial activity against Staphylococcus aureus ATCC 29213 after 24 hrs by two fold serial dilution method; conditions: ATCC 29213, 24 h
[6] = tested on: Klebsiella pneumoniae; test: Antibacterial activity against Klebsiella pneumoniae after 24 hrs by two fold serial dilution method
[7] = tested on: Escherichia coli; test: Antibacterial activity against Escherichia coli after 24 hrs by two fold serial dilution method
[8] = tested on: Pseudomonas aeruginosa; test: Antibacterial activity against Pseudomonas aeruginosa after 24 hrs by two fold serial dilution method
[9] = tested on: Acinetobacter baumannii; test: Antibacterial activity against Acinetobacter baumannii after 24 hrs by two fold serial dilution method
[10] = tested on: Pseudomonas aeruginosa; test: Antibacterial activity against Pseudomonas aeruginosa ATCC 27853 after 24 hrs by two fold serial dilution method; conditions: ATCC 27853, 24 h
[11] = tested on: Escherichia coli; test: Antibacterial activity against Escherichia coli ATCC 25922 after 24 hrs by two fold serial dilution method; conditions: ATCC 25922, 24 h
[12] = tested on: Candida albicans; test: Antifungal activity against Candida albicans after 24 hrs by two fold serial dilution method
[13] = tested on: Candida tropicalis; test: Antifungal activity against Candida tropicalis after 24 hrs by two fold serial dilution method
[14] = tested on: Aspergillus fumigatus; test: Antifungal activity against Aspergillus fumigatus after 24 hrs by two fold serial dilution method
[15] = tested on: Candida albicans; test: Antifungal activity against Candida albicans ATCC 90023 after 24 hrs by two fold serial dilution method; conditions: ATCC 90023, 24 h
[16] = tested on: Candida parapsilosis; test: Antifungal activity against Candida parapsilosis ATCC 22019 after 24 hrs by two fold serial dilution method; conditions: ATCC 22019, 24 h

Row | SMILES | MIC [1] [µg/mL] | MIC [2] [µg/mL] | MIC [3] [µg/mL] | MIC [4] [µg/mL] | MIC [5] [µg/mL] | MIC [6] [µg/mL] | MIC [7] [µg/mL] | MIC [8] [µg/mL] | MIC [9] [µg/mL] | MIC [10] [µg/mL] | MIC [11] [µg/mL] | MIC80 [12] [µg/mL] | MIC80 [13] [µg/mL] | MIC80 [14] [µg/mL] | MIC80 [15] [µg/mL] | MIC80 [16] [µg/mL]
1 | CC(=O)c1nc2ccccc2n1CCn1cnc2c(N3CCOCC3)ncnc21 | 256 (≈ 654 µM) | 64 (≈ 164 µM) | 32 (≈ 81.8 µM) | 64 (≈ 164 µM) | 128 (≈ 327 µM) | 32 (≈ 81.8 µM) | 128 (≈ 327 µM) | 8 (≈ 20.4 µM) | 64 (≈ 164 µM) | 32 (≈ 81.8 µM) | 128 (≈ 327 µM) | 256 (≈ 654 µM) | 256 (≈ 654 µM) | 128 (≈ 327 µM) | 128 (≈ 327 µM) | 512 (≈ 1310 µM)
2 | Fc1cccc(Cn2c(Cn3cnc4c(N5CCOCC5)ncnc43)nc3ccccc32)c1 | 512 (≈ 1150 µM) | 128 (≈ 289 µM) | 256 (≈ 577 µM) | 32 (≈ 72.2 µM) | 64 (≈ 144 µM) | 16 (≈ 36.1 µM) | 256 (≈ 577 µM) | 256 (≈ 577 µM) | 256 (≈ 577 µM) | 128 (≈ 289 µM) | 256 (≈ 577 µM) | 256 (≈ 577 µM) | 128 (≈ 289 µM) | 256 (≈ 577 µM) | 32 (≈ 72.2 µM) | 128 (≈ 289 µM)
3 | CCCCCCn1c(Cn2cnc3c(N4CCCCC4)ncnc32)nc2ccccc21 | 64 (≈ 153 µM) | 128 (≈ 307 µM) | 16 (≈ 38.3 µM) | 64 (≈ 153 µM) | 512 (≈ 1230 µM) | 64 (≈ 153 µM) | 256 (≈ 613 µM) | 128 (≈ 307 µM) | 64 (≈ 153 µM) | 128 (≈ 307 µM) | 16 (≈ 38.3 µM) | 64 (≈ 153 µM) | 64 (≈ 153 µM) | 128 (≈ 307 µM) | 32 (≈ 76.6 µM) | 64 (≈ 153 µM)
4 | C#CCn1c(Cn2cnc3c(N4CCOCC4)ncnc32)nc2ccccc21 | 512 (≈ 1370 µM) | 256 (≈ 686 µM) | 128 (≈ 343 µM) | 128 (≈ 343 µM) | 256 (≈ 686 µM) | 128 (≈ 343 µM) | 128 (≈ 343 µM) | 256 (≈ 686 µM) | 256 (≈ 686 µM) | 128 (≈ 343 µM) | 512 (≈ 1370 µM) | 256 (≈ 686 µM) | 128 (≈ 343 µM) | 512 (≈ 1370 µM) | 256 (≈ 686 µM) | 256 (≈ 686 µM)
5 | CCCCCCCCCCCCn1c(Cn2cnc3c(N4CCOCC4)ncnc32)nc2ccccc21 | 512 (≈ 1020 µM) | 128 (≈ 254 µM) | 16 (≈ 31.8 µM) | 512 (≈ 1020 µM) | 512 (≈ 1020 µM) | 256 (≈ 508 µM) | 32 (≈ 63.5 µM) | 128 (≈ 254 µM) | 512 (≈ 1020 µM) | 128 (≈ 254 µM) | 256 (≈ 508 µM) | 256 (≈ 508 µM) | 64 (≈ 127 µM) | 256 (≈ 508 µM) | 64 (≈ 127 µM) | 256 (≈ 508 µM)
6 | c1nc2nc[nH]c(N3CCCC3)c-2n1 | 512 (≈ 2710 µM) | 512 (≈ 2710 µM) | 64 (≈ 338 µM) | 512 (≈ 2710 µM) | 512 (≈ 2710 µM) | 512 (≈ 2710 µM) | 256 (≈ 1350 µM) | 256 (≈ 1350 µM) | 256 (≈ 1350 µM) | 128 (≈ 676 µM) | 256 (≈ 1350 µM) | 128 (≈ 676 µM) | 128 (≈ 676 µM) | 64 (≈ 338 µM) | 256 (≈ 1350 µM) | 512 (≈ 2710 µM)
7 | c1ccc(Cn2c(Cn3cnc4c(N5CCOCC5)ncnc43)nc3ccccc32)cc1 | 256 (≈ 602 µM) | 128 (≈ 301 µM) | 512 (≈ 1200 µM) | 512 (≈ 1200 µM) | 256 (≈ 602 µM) | 128 (≈ 301 µM) | 256 (≈ 602 µM) | 256 (≈ 602 µM) | 256 (≈ 602 µM) | 128 (≈ 301 µM) | 256 (≈ 602 µM) | 256 (≈ 602 µM) | 128 (≈ 301 µM) | 512 (≈ 1200 µM) | 256 (≈ 602 µM) | 512 (≈ 1200 µM)
8 | FC(F)(F)c1nc2ccccc2n1CCn1cnc2c(N3CCOCC3)ncnc21 | 256 (≈ 613 µM) | 64 (≈ 153 µM) | 32 (≈ 76.7 µM) | 64 (≈ 153 µM) | 128 (≈ 307 µM) | 64 (≈ 153 µM) | 32 (≈ 76.7 µM) | 128 (≈ 307 µM) | 64 (≈ 153 µM) | 64 (≈ 153 µM) | 128 (≈ 307 µM) | 256 (≈ 613 µM) | 256 (≈ 613 µM) | 256 (≈ 613 µM) | 256 (≈ 613 µM) | 128 (≈ 307 µM)
9 | Cc1cc2ncn(CCn3cnc4c(N5CCOCC5)ncnc43)c2cc1C | 256 (≈ 678 µM) | 128 (≈ 339 µM) | 256 (≈ 678 µM) | 256 (≈ 678 µM) | 128 (≈ 339 µM) | 64 (≈ 170 µM) | 256 (≈ 678 µM) | 32 (≈ 84.8 µM) | 256 (≈ 678 µM) | 128 (≈ 339 µM) | 256 (≈ 678 µM) | 256 (≈ 678 µM) | 128 (≈ 339 µM) | 128 (≈ 339 µM) | 128 (≈ 339 µM) | 256 (≈ 678 µM)
10 | CCCCCCCCn1c(Cn2cnc3c(N4CCOCC4)ncnc32)nc2ccccc21 | 512 (≈ 1140 µM) | 256 (≈ 572 µM) | 512 (≈ 1140 µM) | 512 (≈ 1140 µM) | 256 (≈ 572 µM) | 256 (≈ 572 µM) | 256 (≈ 572 µM) | 256 (≈ 572 µM) | 256 (≈ 572 µM) | 128 (≈ 286 µM) | 256 (≈ 572 µM) | 256 (≈ 572 µM) | 256 (≈ 572 µM) | 512 (≈ 1140 µM) | 64 (≈ 143 µM) | 512 (≈ 1140 µM)
